# In patent publication US11007169B2, “Cis-gnetin H and trans-gnetin H as therapeutic agents” (MIDDLE TENNESSEE STATE UNIVERSITY, priority 2014, dated 2021):
# “And” between values parts separate entries of the source, which are not always exact repeats. Equal values may be shown once.
# Key:
# [1] = tested on: A549 lung cancer cell line; details: literature values; read-out: IC50 against the A549 lung cancer cell line; cited from earlier work
# [2] = tested on: p65 (RelA) nuclear translocation in THP-1 cells; assay: Indirect immunofluorescence for NF-κB nuclear translocation; assay type: cell-based, human; details: pretreated 1 h, LPS 30 min; Bay 11-7082 10 μM
# Protocol: (§1) THP-1 cells were maintained in RPMI 1640 medium supplemented with 10% complement-inactivated FBS and 1% penicillin/streptomycin (complete culture medium) at 37° C. with 5% CO2 supplemented. Cell concentrations were adjusted to desired concentrations for each experiment by centrifugation at 500×g for 5 min and resuspended in complete culture medium with 100 nM of PMA. Cell concentration was adjusted to 5×10^5 cells/ml for all assays and 2.5×10^5 cells/ml were used for NF-κB nuclear translocation assay. Cells were seeded onto 96-, 24-, or 12-well plates and incubated for 48 to 72 h to allow for differentiation. Cells were washed with serum-free RPMI 1640 medium before each experiment to remove the undifferentiated cells.
# Differentiated THP-1 cells were pretreated with 50 μM of cis-gnetin H, trans-gnetin H, or 10 μM of Bay 11-7082 for 1 h and stimulated with 1 μg/ml of LPS for 30 min. Bay 11-7082 is a compound that inhibits IKK α/β and IκB α phosphorylation and was used as a positive control (Juliana et al., 2010, J. Biol. Chem., 285:9792-802). Treated cells were fixed, permeabilized, blocked, and stained with NF-κB, p65 primary antibody, Dylight 488 conjugated secondary antibody, and Hoechst 33342 dye, sequentially. The Hoechst and DyLight fluorophores detect changes in nuclear morphology (blue fluorescence) and NF-κB distribution (green fluorescence) respectively. Nuclear Translocation Bioapplication software on the Arrayscan VTI reader was used for image acquisition and analysis. For each well, at least 400 cells were automatically acquired and analyzed. The translocation index was calculated by measuring the average intensity difference of NF-icB between the identified cytoplasmic region and nuclear region.
# [3] = tested on: TNF-α in LPS-stimulated THP-1 cells; assay: Cytokine response by ELISA, TNF-α; assay type: cell-based, human; details: Homo sapiens, THP-1; 1 μM, 20 ng/ml LPS 4 h
# Protocol: as §1
# (§2) Differentiated THP-1 cells were pretreated with various concentrations of cis-gnetin H, trans-gnetin H, or 1 μM of dexamethasone for 1 h and stimulated with 20 ng/ml of LPS for 4 h. Dexamethasone is a synthetic glucocorticoid that suppresses cytokine response and was used as a positive control (Abraham et al., 2006, J. Exp. Med., 203:1883-9; Steer et al., J. Biol. Chem., 2000, 275(24):18432-40). Supernatants were collected for human cytokine ELISAs and the manufacturer's protocol was followed to assess the cytokine response. Cells remaining after the supernatant collection were tested for relative viability by Alamar Blue cytotoxicity assay as described earlier.
# [4] = tested on: IL-1β in LPS-stimulated THP-1 cells; assay: Cytokine response by ELISA, IL-1β; assay type: cell-based, human; details: Homo sapiens, THP-1; 1 μM, 20 ng/ml LPS 4 h
# Protocol: as §1, §2
# [5] = tested on: IL-8 in LPS-stimulated THP-1 cells; assay: Cytokine response by ELISA, IL-8; assay type: cell-based, human; details: Homo sapiens, THP-1; 1 μM, 20 ng/ml LPS 4 h
# Protocol: as §1, §2
compound,measurement,setting,value
"Oc1ccc(C=Cc2cc(O)cc(O)c2)cc1 [Resveratrol, 3,5,4′-trihydroxystilbene]",IC50,[1],8.9 µM and > 10 µM
"Cc1ccc(S(=O)(=O)C=CC#N)cc1 [Bay 11-7082, 3-(4-methylphenylsulfonyl)-2-propenenitrile, reference compound]",p65 nuclear translocation,[2],inhibited the p65 nuclear translocation
"C[C@@H]1C[C@H]2[C@@H]3CCC4=CC(=O)C=C[C@]4(C)[C@@]3(F)[C@@H](O)C[C@]2(C)[C@@]1(O)C(=O)CO [Dexamethasone, dexamethasone, reference compound]",inhibition at 1 µM,[3],58%
same,inhibition at 1 µM,[4],56%
same,inhibition at 1 µM,[5],63%
